No end group written: not given here.
Tests used:
[1] = test system: pituitary release of growth hormone; settings: in vitro, cited from earlier work
[2] = peptide obtained by selective S-methylation of glucagon; cited from earlier work
[3] = stability of hpGRF control solution by HPLC; format: physicochemical; settings: 0.5 mg hpGRF/ml in 0.01M HCl, stored at 22° C., over six hours
Protocol: One mg of hpGRF, obtained from Peninsula Laboratories, was solubilized in one ml of 0.01M hydrochloric acid ([…]). The solution was divided into four equal aliquots, and each was diluted to a concentration of 0.5 mg hpGRF/ml by the addition of 250 μl of 0.01M HCl. The first aliquot was removed and stored at 22° C. for the duration of the experimentation, to serve as a control. Analysis of the control and the extent of each respective chemical modification with hydrogen peroxide, cyanogen bromide, and methyl iodide, described hereinbelow, was performed by high performance liquid chromatography (HPLC). Quantitation was achieved by peak height measurement at 214 nm, of a symmetrical peak eluting at 10 minutes from a (0.46×25 cm) Zorbax C8, 150 Angstrom reverse phase column, at 45° C. in 0.1M ammonium phosphate buffer, pH 7.2/27.5% 1-propanol, v/v. […] Each modification reaction was quenched by a 5:1 dilution (hpGRF final concentration of 0.1 mg/ml) with addition of two ml of 0.1M methionine/0.01M HCl, pH 3.5. Samples were divided and stored at -20° C. and 4° C. prior to analysis of biological activity.

Question: Which results are given for “hpGRF(1-27)-NH2: shortened GRF analog prepared and tested by Rivier et al. (YADAIFTNSYRKVLGQLSARKLLQDIM-NH2; UniProt P01286 32-58, looked up, fragment)”?
Answer: intrinsic activity [1]: full intrinsic activity; potency as % of the potency of hpGRF(1-40)-OH ([1]; relative to hpGRF(1-40)-OH): 10-20%

Question: For glucagon, which “activity as % of the inherent activity of the native hormone” value [2] is on record?
Answer: less than 1%

Question: Which “change in HPLC peak elution time or height” value [3] does the source give for `CC[C@H](C)[C@H](NC(=O)[C@H](C)NC(=O)[C@H](CC(=O)O)NC(=O)[C@H](C)NC(=O)[C@@H](N)Cc1ccc(O)cc1)C(=O)N[C@@H](Cc1ccccc1)C(=O)N[C@H](C(=O)N[C@@H](CC(N)=O)C(=O)N[C@@H](CO)C(=O)N[C@@H](Cc1ccc(O)cc1)C(=O)N[C@@H](CCCNC(=N)N)C(=O)N[C@@H](CCCCN)C(=O)N[C@H](C(=O)N[C@@H](CC(C)C)C(=O)NCC(=O)N[C@@H](CCC(N)=O)C(=O)N[C@@H](CC(C)C)C(=O)N[C@@H](CO)C(=O)N[C@@H](C)C(=O)N[C@@H](CCCNC(=N)N)C(=O)N[C@@H](CCCCN)C(=O)N[C@@H](CC(C)C)C(=O)N[C@@H](CC(C)C)C(=O)N[C@@H](CCC(N)=O)C(=O)N[C@@H](CC(=O)O)C(=O)N[C@H](C(=O)N[C@@H](CCSC)C(=O)N[C@@H](CO)C(=O)N[C@@H](CCCNC(=N)N)C(=O)N[C@@H](CCC(N)=O)C(=O)N[C@@H](CCC(N)=O)C(=O)NCC(=O)N[C@@H](CCC(=O)O)C(=O)N[C@@H](CO)C(=O)N[C@@H](CC(N)=O)C(=O)N[C@@H](CCC(N)=O)C(=O)N[C@@H](CCC(=O)O)C(=O)N[C@@H](CCCNC(=N)N)C(=O)NCC(=O)N[C@@H](C)C(=O)N[C@@H](CCCNC(=N)N)C(=O)N[C@@H](C)C(=O)N[C@@H](CCCNC(=N)N)C(=O)N[C@@H](CC(C)C)C(N)=O)[C@@H](C)CC)C(C)C)[C@@H](C)O` [hpGRF] here?
Answer: no change in peak elution time or height
